The source of these data is patent publication US20190201526A1, “Methods and Compositions for Treating Cancers by Inhibiting Estrogen Signaling in Myeloid-Derived Suppressor Cells” (The Wistar Institute of Anatomy and Biology, priority 2016, published 2019).

One assay relates to metastatic solid tumors. The conditions noted are these: patients with metastatic solid tumors; Soliman, et al., Oncotarget 2014; cited from earlier work.
Assay [1] concerns G- or M-MDSCs isolated from 6-day bone marrow cultures. Description: MDSC suppression assay (Cell Trace Violet dilution of T cells). The assay is classed as cell-based, mouse. Conditions: 6-day BM cultures. On the procedure:
(§1) Mouse MDSCs were expanded from mouse bone marrow harvested by flushing tibias and femurs with media. Following red blood cell lysis, 2.5×10^6 cells were cultured in 10 mL of RPMI+10% FBS augmented with recombinant mouse 40 ng/mL GM-CSF^+40 ng/mL IL6 (Peprotech) and incubated at 37° C., 5% CO2 3 or 6 days. Vehicle, estradiol, or MPP treatments were added as described above. For 6 day cultures, cytokines and estrogen treatments were refreshed on day 3. Following incubation, floating and adherent cells were collected, and MMDSCs and G-MDSCs were isolated via MDSC purification kit according to manufacturer's protocol for further analysis. Human MDSCs were expanded from human lung cancer patient bone marrow acquired as single cell suspensions (see above). Briefly, 2×10^6 cells were cultured in 3 mL of IMDM^+ 15% FBS supplemented with recombinant human 40 ng/mL GM-CSF^+ 40 ng/mL IL6 (Peprotech) and treated with Vehicle, 2 μM, or 10 μM MPP (see above) for 4 days. Cells were subsequently harvested and analyzed by flow cytometry.
Naïve WT T cells were purified from spleens as described and labeled with the proliferation tracker Cell Trace Violet according to manufacturer protocol. T cell proliferation was stimulated by adding anti-CD3/CD28 mouse T-activator beads (Thermo) at a 1:1 T cell to bead ratio according to manufacturer protocol. […]

Assay [2] relates to ID8-Defb29/Vegf-α peritoneal tumors. The assay can be described thus: Intraperitoneal ID8-Defb29/Vegf-α ovarian tumor model (survival, flow cytometry, ELISpot). The format is in vivo, mouse. On the procedure:
(§2) Female 5-8 week old wild-type (WT) C57BL/6 and congenic Ly5.1 mice were purchased from the Charles River Frederick facility. Esr1 knockout (ERα KO) were purchased from The Jackson Laboratory. Ovariectomies were performed by Charles River staff at 5 weeks of age. Mice were treated with vehicle (0.1% ethanol) or 10 μM estradiol (USP grade, Sigma) drinking water refreshed every 3-4 days. All mice were maintained in pathogen-free barrier facilities. All experiments were conducted according to the approval of the Wistar Institute Institutional Animal Care and Use Committee.
(§3) ID8 cells were retrovirally transduced to express Defb29 and Vegf-α (Conejo-Garcia, et al. “Tumor-infiltrating dendritic cell precursors recruited by a beta-defensin contribute to vaculogenesis under the influence of Vegf-A.” Nat. Med. (2004) 10:950-8). MCF-7, MDA-MB-231, and LLC1 cells were obtained from American Type Culture Collection. Peritoneal tumors were initiated in mice by injecting 3X106 ID8-Defb29/Vegf-α cells intraperitoneal (i.p.). Intraperitoneal cells were harvested from tumorbearing mice by flushing the peritoneal cavity with PBS. Cells were maintained in vitro at 37° C., 5% CO2 by culturing in RPMI+10% FBS or steroid free media (SFR10), which was comprised of phenol red-free RPMI+10% charcoal-stripped FBS. Cells were treated in vitro with vehicle (0.1% DMSO) or varying concentrations of estradiol, fulvestrant, or Methylpiperidino pyrazole (MPP) purchased from Cayman Chemical. Cell line proliferation was determined by MTS assay (Promega), and increased/decreased proliferation relative to vehicle was calculated.
For generating mixed BM chimeras, mononuclear BM cells were collected from adult agematched CD45.1 (congenic) WT or CD45.2 Esr1^−/− donor mice, and 1-2×10^6 cells were mixed in a 1:1 ratio and retro-orbitally injected into lethally irradiated (˜950 rad) adult recipients. Mixed chimeras were analyzed after 7-8 weeks as indicated.
(§4) Flow cytometry was performed by staining cells with Zombie Yellow viability dye, blocking with anti-CD16/32 (2.4G2), and staining for 30 min at 4° C. with the following anti-mouse antibodies: CD45 (30-F11), CD45.1 (A20), CD45.2 (104), CD11c (N418), I-A/I-E (M5/114.15.2), CD3 (145-2C11), Ly6G (1A8), Ly6C (HK1.4), gp130 (4H1B35), IL6R (D7715A7), Gr1 (RB6-4C5), CD4 (RM4-5), CD8b (YTS156.7.7), CD44 (IM7), CD69 (H1.2F3), CD11b (M1/70); or anti-human antibodies: CD45 (HI30), CD11c (Bul5), HLA-DR-APC/Cy7 (L243), CD15 (HI98), CD14 (HCD14), CD11b (ICRF44), CD33 (WM53), CD19 (HIB19). Samples were subsequently run using an LSRII and analyzed using FlowJo.
Dendritic cells (BMDCs) were differentiated by culturing WT mouse bone marrow for 7 days with 20 ng/mL GM-CSF (Peprotech 315-03), refreshed every 3 days. BMDCs were subsequently primed with tumor antigen by pulsing for 24 hours with irradiated (100 Gy+30 minutes UV) ID8-Defb29/Vegf-α cells at a ratio of 10:1. ELISPOT assay was performed by stimulating 1X105 cells obtained from peritoneal wash with 1X104 antigen-primed BMDCs in a 96-well filter plate (Millipore MSIPS4510) coated with IFNγ capture antibody according to manufacturer's guidelines (eBioscience 88-3784-88). Following incubation at 37° C., 5% CO2 or 48 hours, positive spots were developed using Avidin-AP and BCIP-NBT substrate (R&D Systems SEL002).

The subject of another assay is ID8-Defb29/Vegf-α cells. The assay can be described thus: Cell line proliferation by MTS assay. The assay is classed as cell-based, mouse. Conditions: ID8-Defb29/Vegf-α cells in vitro, increasing doses, steroid-free media; MCF-7 as positive control (FIG. 1D).
Description: as §3
(Tetrazolium assays rely on reduction of a dye to a coloured formazan, in cell work by metabolically active cells.)

Assay [3] deals with STAT3. The assay can be described thus: pSTAT3 and total STAT3 in in vitro BM-derived MDSC cultures (Western blot). The format is cell-based, mouse. Conditions: 100 ng/mL E2 or 2 μM MPP (FIG. 6B). On the procedure:
as §1
(§5) Cells were lysed in RIPA buffer supplemented with protease inhibitors, phosphatase inhibitors, and Na3VO4 (Thermo) according to manufacturer protocol. Protein quantification was determined via BCA assay, and protein was run on TGX 4-15% gradient gels. Following transfer, PVDF membranes were blocked with 5% BSA in TBS+ 0.05% Tween-20. […]
On the technique in general: In western blotting, separated proteins are transferred to a membrane and probed.

The next assay relates to IL6Rα chain, gp130. Description: Surface expression of IL6Rα and gp130 on BM-derived MDSCs (flow cytometry). The format is cell-based, mouse. On the procedure: as §4
as §1, with “Human MDSCs were expanded from human lung cancer patient bone marrow acquired as single cell suspensions (see above). Briefly, 2×10^6 cells were cultured in 3 mL of IMDM^+ 15% FBS supplemented with recombinant human 40 ng/mL GM-CSF^+ 40 ng/mL IL6 (Peprotech) and treated with Vehicle, 2 μM, or 10 μM MPP (see above) for 4 days.” left out
Background: In flow cytometry, cells or beads pass a laser one at a time.

Assay [4] concerns STAT3. The assay can be described thus: pSTAT3 in MDSCs from tumor-bearing mice (Western blot). The conditions noted are these: spleens of advanced ovarian cancer-bearing mice treated with E2, compared to oophorectomized mice (FIG. 6A). The format is in vivo, mouse. The method, then:
as §2
Cells were lysed in RIPA buffer supplemented with protease inhibitors, phosphatase inhibitors, and Na3VO4 (Thermo) according to manufacturer protocol. Protein quantification was determined via BCA assay, and protein was run on TGX 4-15% gradient gels. Following transfer, PVDF membranes were blocked with 5% BSA in TBS+ 0.05% Tween-20. The following primary antibodies were added to membranes, as indicated, and incubated overnight: Jak2 (rabbit clone#D2E12), Stat3 (clone#124H6) and pStat3 (Tyr705)(rabbit clone#D3A7), from Cell Signaling; and ERα (Thermo, clone#TE111.5D11) and beta-actin (Sigma, clone#AC-15).
Following secondary staining with HRP-conjugated anti-mouse or rabbit IgG, membranes were developed using ECL prime (GE Healthcare).

Another assay concerns Jak2. The assay can be described thus: Jak2 RNA and protein expression in BM-derived MDSCs. The format is cell-based, mouse. On the procedure: as §1, §5
For assay [5], the system named is Lewis Lung Carcinomas (LLC). The assay can be described thus: Lewis Lung Carcinoma (LLC) tumor progression in mice. The assay is classed as in vivo, mouse. The conditions noted are these: estradiol supplementation, WT mice (FIG. 3A). The method, then: as §2
ID8 cells were retrovirally transduced to express Defb29 and Vegf-α (Conejo-Garcia, et al. “Tumor-infiltrating dendritic cell precursors recruited by a beta-defensin contribute to vaculogenesis under the influence of Vegf-A.” Nat. Med. (2004) 10:950-8). MCF-7, MDA-MB-231, and LLC1 cells were obtained from American Type Culture Collection. Peritoneal tumors were initiated in mice by injecting 3X106 ID8-Defb29/Vegf-α cells intraperitoneal (i.p.). Intraperitoneal cells were harvested from tumorbearing mice by flushing the peritoneal cavity with PBS. […] Cell line proliferation was determined by MTS assay (Promega), and increased/decreased proliferation relative to vehicle was calculated.

As for `Cn1cc(C[C@@H](N)C(=O)O)c2ccccc21` [Indoximod, 1-methyl-D-tryptophan], in the assay with metastatic solid tumors, the “Activity in human clinical trials” value is given as “has shown activity”.

`C[C@]12CC[C@@H]3c4ccc(O)cc4CC[C@H]3[C@@H]1CC[C@@H]2O` [estradiol]: the “Inhibitory activity of M-MDSCs” value in [1] (100 ng/mL E2 (FIG. 5C, bottom)) is “did not affect”. Further, the “Immunosuppressive activity of G-MDSCs” value in [1] (100 ng/mL E2 or 2 μM MPP (FIG. 5C, top)) is “more potently immunosuppressive”. In addition, in assay [2] (E2 treatment, compared to mice reconstituted with ERα-deficient bone marrow (FIG. 4B)), the “Tumor progression in irradiated mice reconstituted with wild-type bone marrow” value is “tumors progress significantly faster”. In [2] (T cells from E2-treated mice vs control and oophorectomized mice (FIG. 2C)), the “IFN-γ ELISpot response of tumor-associated T cells to tumor antigens” value is reported as “responded significantly worse than either group”. Also, in assay [2] (ad libitum estradiol supplementation, tumor-bearing mice (FIG. 2A)), the “Inflammation at tumor (peritoneal) beds” value is on record as “augmented inflammation”. In addition, the “Tumor progression in ERα KO hosts” value in [2] (estradiol supplementation, ERα KO mice (FIG. 4A)) is listed as “failed to accelerate tumor progression”. Moreover, the “Tumor progression in wild-type controls” value in assay [2] (estradiol supplementation, wild-type mice (FIG. 4A)) is “significant effects”. Besides, the “Proportions of CD44+ CD69+ tumor-associated CD4 and CD8 T-cells” value in assay [2] (estradiol-supplemented tumor-bearing mice (FIG. 2B)) is “decreases”. Moreover, the “Percentage and total numbers of M-MDSC and G-MDSC” value in assay [2] (spleen and tumor beds of tumor-bearing mice (FIGS. 3B to 3E)) is “increased”. The “Proliferation relative to vehicle (response to treatment)” value with ID8-Defb29/Vegf-α cells is “fail to respond”. In addition, the “Phospho-STAT3 in M-MDSCs and G-MDSCs” value in the assay with STAT3 [3] is given as “increased phospho-STAT3 levels”. Besides, the “Surface expression of the IL6Rα chain” value with IL6Rα chain, gp130 (BM-MDSCs (FIG. 6D, left)) is given as “did not elicit changes”. The “Surface expression of gp130” value with IL6Rα chain, gp130 (BM-MDSCs (FIG. 6D, right)) is reported as “did not elicit changes”. For the same molecule, the “Levels of pSTAT3Y705 in monocytic and granulocytic MDSCs” value in the assay on STAT3 [4] was “significantly increased”. Besides, in the assay on Jak2 (BM-derived MDSCs (FIG. 6E, right)), the Jak2 protein expression result is “reproducible Jak2 up-regulation”. Besides, in the assay on Jak2 (cytokine-induced bone marrow MDSCs of both lineages (FIG. 6E, left)), the “Jak2 RNA expression” value was “transcriptional up-regulation”. Moreover, in [5], the “Malignant growth of LLC tumors” value is “accelerated malignant growth” and the “Survival of LLC tumor-bearing mice” value is recorded as “decreased survival”.
